Read-outs that look alike come from different tables or passages of the source. Square brackets hold non-standard residues; d marks the D form. Peptide text beside a SMILES is read from it. * marks the point of attachment. Dolaproine = CO[C@@H]([C@@H]1CCCN1)[C@@H](C)C(=O)O; Dil = CC[C@H](C)[C@H](NC)[C@@H](CC(=O)O)OC; X1 = C[C@@H](N*)[C@@H](O)c1ccccc1; NMeV = CN[C@H](C(=O)O)C(C)C
Columns and labels:
[1] = tested on: DU-145 (prostate) cancer cell line; assay: NCI sulforhodamine B growth inhibition, DU-145; type: cell-based, human; conditions: DU-145, 48 h
Experimental: (§1) Next, serial dilutions of the compounds were added.

[2] = tested on: KM20L2 (colon) cancer cell line; assay: NCI sulforhodamine B growth inhibition, KM20L2; type: cell-based, human; conditions: KM20L2, 48 h
Experimental: as §1

[3] = tested on: BXPC-3 (pancreas) cancer cell line; assay: NCI sulforhodamine B growth inhibition, BXPC-3; type: cell-based, human; conditions: BXPC-3, 48 h
Experimental: as §1

[4] = tested on: MCF-7 (breast) cancer cell line; assay: NCI sulforhodamine B growth inhibition, MCF-7; type: cell-based, human; conditions: MCF-7, 48 h
Experimental: as §1

[5] = tested on: NCI-H460 (lung) cancer cell line; assay: NCI sulforhodamine B growth inhibition, NCI-H460; type: cell-based, human; conditions: NCI-H460, 48 h
Experimental: as §1

[6] = tested on: SF-268 (CNS) cancer cell line; assay: NCI sulforhodamine B growth inhibition, SF-268; type: cell-based, human; conditions: SF-268, 48 h
Experimental: as §1

Human Cancer Cell Lines = tested on: Human Cancer Cell Lines
Experimental: Inhibition of human cancer cell growth was assessed using the National Cancer Institute's standard sulforhodamine B assay as previously described.^10 In summary, cells in a 5% fetal bovine serum/RPMI1640 medium were inoculated in 96-well plates and incubated for 24 hrs. Next, serial dilutions of the compounds were added. After 48 h, the plates were fixed with trichloroacetic acid, stained with sulforhodamine B, and read with an automated microplate reader.

[7] = bracketed value, read-out: GI50

Row | SMILES | GI50 [1] [ng/mL] | GI50 [1, 7] [pM] | GI50 [2] [ng/mL] | GI50 [2, 7] [pM] | GI50 [3] [ng/mL] | GI50 [3, 7] [pM] | GI50 [4] [ng/mL] | GI50 [4, 7] [pM] | GI50 [5] [ng/mL] | GI50 [5, 7] [pM] | GI50 [6] [ng/mL] | GI50 [6, 7] [pM] | increase in cancer cell growth inhibition as compared to auristatin AQ (Human Cancer Cell Lines; comparison with auristatin AQ) | inhibition level compared with dolastatin 10 (Human Cancer Cell Lines; in one of the experiments)
1 | CC[C@H](C)[C@@H]([C@@H](CC(=O)N1CCC[C@H]1[C@H](OC)[C@@H](C)C(=O)NCCc1ccc2ncccc2c1)OC)N(C)C(=O)[C@@H](NC(=O)[C@H](C(C)C)N(C)C)C(C)C [Quinstatin 6, Dov-Val-Dil-Dap-2-(quinolin-6-yl)ethylamine] | 0.3 | 399 | 0.39 | 518 | 2 | 2660 | 0.4 | 532 | 4.3 | 5710 | 0.3 | 399 |  | 
2 | CC[C@H](C)[C@@H]([C@@H](CC(=O)N1CCC[C@H]1[C@H](OC)[C@@H](C)C(=O)NCCc1cnc2ccccc2c1)OC)N(C)C(=O)[C@@H](NC(=O)[C@H](C(C)C)N(C)C)C(C)C [Quinstatin 3, 3-(1′-Dov-Val-Dil-Dap-2′-ethyl)-quinoline] | 0.2 | 260 | 0.4 | 530 | 21 | 27900 | 0.23 | 310 | 31 | 41200 | 0.29 | 380 |  | 
3 | CC[C@H](C)[C@@H]([C@@H](CC(=O)N1CCC[C@H]1[C@H](OC)[C@@H](C)C(=O)N[C@H](C)[C@@H](O)c1ccccc1)OC)N(C)C(=O)[C@@H](NC(=O)[C@H](C(C)C)N(C)C)C(C)C [Auristatin E, auristatin E, reference compound] | 0.31 | 424 | 0.36 | 492 | >1 | > 1370 | 0.17 | 232 | 0.39 | 533 | 0.36 | 492 |  | 
4 | CC[C@H](C)[C@@H]([C@@H](CC(=O)N1CCC[C@H]1[C@H](OC)[C@@H](C)C(=O)NCCc1ccc2cccnc2c1)OC)N(C)C(=O)[C@@H](NC(=O)[C@H](C(C)C)N(C)C)C(C)C [Quinstatin 7, 7-(1′-Dov-Val-Dil-Dap-2′-ethyl)-quinoline] | 0.03 | 40 | 0.041 | 54 | 3.1 | 4120 | 0.03 | 39 | 11 | 14600 | 0.024 | 32 |  | 
5 | CC[C@H](C)[C@@H]([C@@H](CC(=O)N1CCC[C@H]1[C@H](OC)[C@@H](C)C(=O)NCCc1ccc2ccccc2n1)OC)N(C)C(=O)[C@@H](NC(=O)[C@H](C(C)C)N(C)C)C(C)C [Quinstatin 2, 2-(1′-Dov-Val-Dil-Dap-2′-ethyl)-quinoline] | 0.31 | 412 | 0.33 | 438 | 9.3 | 12400 | 0.31 | 412 | 5.1 | 6780 | 0.23 | 306 | ten to one hundred times | 
6 | CC[C@H](C)[C@@H]([C@@H](CC(=O)N1CCC[C@H]1[C@H](OC)[C@@H](C)C(=O)N[C@H](C)[C@@H](O)c1ccccc1)OC)N(C)C(=O)[C@@H](NC(=O)[C@@H](NC)C(C)C)C(C)C [Desmethylauristatin E, desmethyl auristatin E, reference compound] (H-[NMeV]V[Dil][Dolaproine]-X1) | 0.3 | 418 | 0.43 | 599 | >1 | > 1390 | 0.29 | 404 | 0.49 | 683 | 0.31 | 432 |  | 
7 | CC[C@H](C)[C@@H]([C@@H](CC(=O)N1CCC[C@H]1[C@H](OC)[C@@H](C)C(=O)NCCc1cccc2cccnc12)OC)N(C)C(=O)[C@@H](NC(=O)[C@H](C(C)C)N(C)C)C(C)C [Quinstatin 8, 8-(1′-Dov-Val-Dil-Dap-2′-ethyl)-quinoline] | 0.04 | 53 | 0.04 | 53 | 0.5 | 425 | 0.04 | 53 | 0.9 | 1190 | 0.023 | 30 |  | at the dolastatin 10 level, but not consistently
8 | CC[C@H](C)[C@@H]([C@@H](CC(=O)N1CCC[C@H]1[C@H](OC)[C@@H](C)C(=O)N[C@@H](Cc1ccccc1)c1nccs1)OC)N(C)C(=O)[C@@H](NC(=O)[C@H](C(C)C)N(C)C)C(C)C [Dolastatin 10, dolastatin 10, reference compound] | 0.0052 | 7 | 0.008 | 10 | 0.04 | 51 | 0.0042 | 5 | 0.18 | 229 | 0.0043 | 6 |  | 
